Results reported in patent US7588899B2, “Fluorescent probes for use in protein kinase inhibitor binding assay” (Boehringer Ingelheim Pharmaceuticals, Inc., priority 2003, dated 2009).

Molecular target: STK12 kinase domain (Homo sapiens, UniProt Q96GD4)
Test: Fluorescence polarization titration of the fluorescent probe with STK12 kinase domain
Type: binding
Conditions: 25 nM probe, STK12 kinase domain serially diluted
Procedure: Step one: Characterization of the Fluorescent Probe
An absorbance spectrum is first evaluated for each probe. The excitation and emission spectra are then measured in order to identify the appropriate excitation and emission wavelengths for detecting the probe. An example of such a probe is 6-(2,7-difluoro-6-hydroxy-3-oxo-3H-xanthen-9-yl)-N-[6-(5-nitro-2-phenylamino-pyrimidin-4-ylamino)-hexyl]-isophthalamic acid where the excitation and emission maxima are 496 nm and 524 nm, respectively. These fluorescence spectra were measured on an SLM-8100 fluorimeter with the probe dissolved in an assay buffer (50 mM HEPES, pH 7.4, 100 mM NaCl, 5 mM MgCl2 5 % Glycerol, 200 mM TCEP and 0.01% (w/v) CHAPS, 2 % DMSO).
The affinity of the probe for STK12 kinase domain was then determined in a titration experiment. The polarization assay is carried out in Corning® Costar® NBS 96-well solid black flat bottom plates. In this example, an LJL Analyst® assay detection system was used with filters appropriate for the excitation/emission characteristics of the fluorescent probe. STK12 kinase domain was serially diluted into wells containing 25 nM probe to cover a broad concentration range across the plate. In addition, several wells contain either probe alone or probe with the highest concentration of STK12 kinase domain. This is done in order to calculate the Qb/Qf ratio for the probe/kinase domain pair. […]

STK12 kinase domain, sequence (Q96GD4 77-327 limits assumed): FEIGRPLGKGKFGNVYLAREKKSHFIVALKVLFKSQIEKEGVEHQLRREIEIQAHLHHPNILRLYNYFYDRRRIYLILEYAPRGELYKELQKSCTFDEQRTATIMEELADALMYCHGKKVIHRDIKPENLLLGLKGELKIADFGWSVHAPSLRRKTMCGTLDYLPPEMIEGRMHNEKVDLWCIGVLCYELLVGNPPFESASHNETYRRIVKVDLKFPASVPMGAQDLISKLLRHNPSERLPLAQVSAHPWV

O=C(NCCCCCCNc1nc(Nc2ccccc2)ncc1[N+](=O)[O-])c1ccc(-c2c3cc(F)c(=O)cc-3oc3cc(O)c(F)cc23)c(C(=O)O)c1 [Compound G, 6-(2,7-difluoro-6-hydroxy-3-oxo-3H-xanthen-9-yl)-N-[6-(5-nitro-2-phenylamino-pyrimidin-4-ylamino)-hexyl]-isophthalamic acid]
binding of fluorescent probe to STK12 kinase domain: binds to the active site of STK12 kinase domain
